This assay relates to Coxsackie B3 virus (strain Nancy). As to the kind of experiment: microbe, parasite or virus in culture. The note with it: Enterovirus B, B3, Vero, 48 h, read-out: IC50 (50% inhibitory concentration). The class given is cell-based.

As to `NC(=O)c1ncn([C@@H]2O[C@H](CO)[C@@H](O)[C@H]2O)n1` [Ribavirin], the IC50 was 56 ± 8 µM.
